The record followed here is PubChem BioAssay AID1259407 (Chemical Carcinogenesis Research Information System (CCRIS), 2018).

The source made the active and inactive calls. No rule for the calls is given here.

In this series the test system is CCRIS mutagenicity, Ames/micronucleus/aberration tests. The series is described as follows: CCRIS mutagenicity studies.

Take `O=S1(=O)CC=CC1`: the mutagenic call by setting is: (End Point: IN VITRO CHROMOSOMAL ABERRATIONS, Test System: CHO-LB CELLS, Metabolic Activation: NONE) “inactive; negative”; (End Point: IN VITRO CHROMOSOMAL ABERRATIONS, Test System: CHO-LB CELLS, Metabolic Activation: RAT, LIVER, S-9, AROCLOR 1254) “inactive; negative”; (Test System: AMES SALMONELLA TYPHIMURIUM, Strain/Indicator: TA98, Metabolic Activation: HAMSTER, LIVER, S-9, AROCLOR 1254 (10%), Method: PREINCUBATION) “inactive; negative”; (Test System: AMES SALMONELLA TYPHIMURIUM, Strain/Indicator: TA98, Metabolic Activation: NONE, Method: PREINCUBATION) “inactive; negative”; (Test System: AMES SALMONELLA TYPHIMURIUM, Strain/Indicator: TA98, Metabolic Activation: RAT, LIVER, S-9, AROCLOR 1254 (10%), Method: PREINCUBATION) “inactive; negative”; (Test System: AMES SALMONELLA TYPHIMURIUM, Strain/Indicator: TA100, Metabolic Activation: HAMSTER, LIVER, S-9, AROCLOR 1254 (10%), Method: PREINCUBATION) “inactive; negative”. The mutagenic call (Test System: AMES SALMONELLA TYPHIMURIUM, Strain/Indicator: TA100, Metabolic Activation: NONE, Method: PREINCUBATION) is “inactive; negative”; the mutagenic call (Test System: AMES SALMONELLA TYPHIMURIUM, Strain/Indicator: TA100, Metabolic Activation: RAT, LIVER, S-9, AROCLOR 1254 (10%), Method: PREINCUBATION) is “inactive; negative”; the mutagenic call (Test System: AMES SALMONELLA TYPHIMURIUM, Strain/Indicator: TA1535, Metabolic Activation: HAMSTER, LIVER, S-9, AROCLOR 1254 (10%), Method: PREINCUBATION) is “inactive; negative”; the mutagenic call (Test System: AMES SALMONELLA TYPHIMURIUM, Strain/Indicator: TA1535, Metabolic Activation: NONE, Method: PREINCUBATION) was “inactive; negative”; the mutagenic call (Test System: AMES SALMONELLA TYPHIMURIUM, Strain/Indicator: TA1535, Metabolic Activation: RAT, LIVER, S-9, AROCLOR 1254 (10%), Method: PREINCUBATION) is “inactive; negative”; the mutagenic call (Test System: AMES SALMONELLA TYPHIMURIUM, Strain/Indicator: TA1537, Metabolic Activation: HAMSTER, LIVER, S-9, AROCLOR 1254 (10%), Method: PREINCUBATION) was “inactive; negative”. Further, the mutagenic call is “inactive; negative” (Test System: AMES SALMONELLA TYPHIMURIUM, Strain/Indicator: TA1537, Metabolic Activation: NONE, Method: PREINCUBATION) and “inactive; negative” (Test System: AMES SALMONELLA TYPHIMURIUM, Strain/Indicator: TA1537, Metabolic Activation: RAT, LIVER, S-9, AROCLOR 1254 (10%), Method: PREINCUBATION).

As to `COc1ccc(-c2coc3cc(O)cc(O)c3c2=O)cc1`, the mutagenic call reads like this: (Test System: AMES SALMONELLA TYPHIMURIUM, Strain/Indicator: TA98, Metabolic Activation: HAMSTER, LIVER, S-9, AROCLOR 1254, Method: STANDARD PLATE) “inactive; negative”; (Test System: AMES SALMONELLA TYPHIMURIUM, Strain/Indicator: TA98, Metabolic Activation: NONE, Method: STANDARD PLATE) “inactive; negative”; (Test System: AMES SALMONELLA TYPHIMURIUM, Strain/Indicator: TA98, Metabolic Activation: RAT, LIVER, S-9, AROCLOR 1254, Method: STANDARD PLATE) “inactive; negative”; (Test System: AMES SALMONELLA TYPHIMURIUM, Strain/Indicator: TA100, Metabolic Activation: HAMSTER, LIVER, S-9, AROCLOR 1254, Method: STANDARD PLATE) “inactive; negative”; (Test System: AMES SALMONELLA TYPHIMURIUM, Strain/Indicator: TA100, Metabolic Activation: NONE, Method: STANDARD PLATE) “inactive; negative”; (Test System: AMES SALMONELLA TYPHIMURIUM, Strain/Indicator: TA100, Metabolic Activation: RAT, LIVER, S-9, AROCLOR 1254, Method: STANDARD PLATE) “inactive; negative”. The mutagenic call is “inactive; negative” (Test System: AMES SALMONELLA TYPHIMURIUM, Strain/Indicator: TA1535, Metabolic Activation: HAMSTER, LIVER, S-9, AROCLOR 1254, Method: STANDARD PLATE); “inactive; negative” (Test System: AMES SALMONELLA TYPHIMURIUM, Strain/Indicator: TA1535, Metabolic Activation: NONE, Method: STANDARD PLATE); “inactive; negative” (Test System: AMES SALMONELLA TYPHIMURIUM, Strain/Indicator: TA1535, Metabolic Activation: RAT, LIVER, S-9, AROCLOR 1254, Method: STANDARD PLATE); “inactive; negative” (Test System: AMES SALMONELLA TYPHIMURIUM, Strain/Indicator: TA1537, Metabolic Activation: HAMSTER, LIVER, S-9, AROCLOR 1254, Method: STANDARD PLATE); “inactive; negative” (Test System: AMES SALMONELLA TYPHIMURIUM, Strain/Indicator: TA1537, Metabolic Activation: NONE, Method: STANDARD PLATE); “inactive; negative” (Test System: AMES SALMONELLA TYPHIMURIUM, Strain/Indicator: TA1537, Metabolic Activation: RAT, LIVER, S-9, AROCLOR 1254, Method: STANDARD PLATE). Besides, the mutagenic call by setting is: (Test System: AMES SALMONELLA TYPHIMURIUM, Strain/Indicator: TA1538, Metabolic Activation: HAMSTER, LIVER, S-9, AROCLOR 1254, Method: STANDARD PLATE) “inactive; negative”; (Test System: AMES SALMONELLA TYPHIMURIUM, Strain/Indicator: TA1538, Metabolic Activation: NONE, Method: STANDARD PLATE) “inactive; negative”; (Test System: AMES SALMONELLA TYPHIMURIUM, Strain/Indicator: TA1538, Metabolic Activation: RAT, LIVER, S-9, AROCLOR 1254, Method: STANDARD PLATE) “inactive; negative”; (Test System: MOUSE LYMPHOMA, Strain/Indicator: L5178Y (TK+/TK-), Metabolic Activation: NONE, Method: SUSPENSION/PLATE) “active; positive. reevaluation of results: inconclusive”; (Test System: MOUSE LYMPHOMA, Strain/Indicator: L5178Y (TK+/TK-), Metabolic Activation: RAT, LIVER, S-9, AROCLOR 1254, Method: SUSPENSION/PLATE) “active; positive. reevaluation of results: positive”; (Test System: SYRIAN HAMSTER EMBRYO CELLS, Strain/Indicator: HPRT/6-THIOGUANINE, Metabolic Activation: NONE, Method: PLATE) “inactive; negative”.
